The source of these data is publication PMC11489133, “Obicetrapib exhibits favorable physiochemical and pharmacokinetic properties compared to previous cholesteryl ester transfer protein inhibitors: An integrated summary of results from non‐human primate studies and clinical trials” (Pharmacology Research & Perspectives, 2024).

The conditions of data set [1]: pH 7.4; cited from earlier work.
Data set [2] is described as follows: TA‐8995‐203 Phase II trial in Japanese participants, plasma concentrations of obicetrapib. Format: in vivo, humans. Particulars: for Mean (SD) Plasma Level / concentration at 8 weeks: Week 8 (EOT), Japanese participants; for % Change in Plasma Level: Week 8 to Week 12, mean (SD); for concentration at 8 weeks / concentration at 12 weeks: both sexes, human, plasma, oral, read-out: Mean (SD) Plasma Level; for concentration at 12 weeks: Week 12, four weeks after the end of treatment. How it is done: (§1) The PK parameters and the effect of food on the bioavailability of obicetrapib in humans have been examined in both Phase I[9] (TA‐8995‐09 CSR, NewAmsterdam Pharma) and Phase II trials.[10], [11], [12], [13] The trials were performed in accordance with the Declaration of Helsinki, Good Clinical Practice Guidelines, and applicable regulatory requirements. Approval was obtained from the relevant ethical review boards for each site. All volunteers provided written informed consent prior to participation. PK parameters were determined using WinNonlin software, version 4.1 or higher (Pharsight/Certara Corporation, USA). Concentrations of obicetrapib were summarized for each treatment group using descriptive statistics.
This Phase II trial (NCT05421078) was designed to evaluate the efficacy, safety, and tolerability of obicetrapib as an adjunct to stable statin therapy in Japanese participants with LDL‐C >70 mg/dL, or non‐HDL‐C >100 mg/dL, and triglyceride levels <400 mg/dL.[13] Eligible participants were receiving either atorvastatin 10 or 20 mg or rosuvastatin 5 or 10 mg for at least 8 weeks prior to screening and continued statin therapy throughout the treatment period. One hundred two participants (mean age: 64.8 years; 71.6% male; mean BMI: 25.6 kg/m^2) were enrolled at nine clinical research sites in Japan and randomized to one of four treatment groups in a 1:1:1:1 ratio: 1) placebo; 2) 2.5 mg obicetrapib; 3) 5 mg obicetrapib; or 4) 10 mg obicetrapib.
The participants were instructed to take their assigned treatment orally once daily at approximately the same time each morning for the 8‐week treatment period. After randomization, participants returned to the clinical research site during Weeks 2, 4, and 8 (end of treatment) for PK assessments. Participants also completed a follow‐up visit 4 weeks after the end of treatment (Week 12) for a final PK assessment. All of the participants who were randomized completed the treatment and were included in the primary analysis. The PK population included all randomized participants in the mITT population assigned to the three obicetrapib dose groups who had sufficient blood samples collected for valid estimation of PK parameters; 76 (100%) participants in the PK population were included in the 4‐week post‐end of treatment PK analysis (TA‐8995‐203 CSR, NewAmsterdam Pharma).

Data set [3] in a line: ROSE2 Phase II trial, plasma concentrations of obicetrapib. The format is in vivo, humans. The following applies: for % Change in Plasma Level: Week 12 to Week 16, mean (SD); for concentration at 12 weeks / concentration at 16 weeks: both sexes, human, plasma, oral, read-out: Mean (SD) Plasma Level; for concentration at 12 weeks: Week 12 (EOT), on‐treatment PK population; for concentration at 16 weeks: Week 16, four weeks after the end of treatment. How it is done: as §1
ROSE2 (NCT05266586) was a placebo‐controlled, double‐blind, randomized trial conducted to evaluate the efficacy, safety, and tolerability of obicetrapib or obicetrapib plus ezetimibe as an adjunct to high‐intensity statin therapy.[12] An exploratory endpoint of the trial included assessing the plasma concentrations of obicetrapib during treatment and 4 weeks after the end of treatment. […] One hundred nineteen participants (mean age: 62.6 years; 63.9% male; 84.5% White; mean BMI: 30.9 kg/m^2) were enrolled at 18 clinical research sites in the United States and randomized in a 1:1:1 ratio to one of three treatment groups: (1) placebo; (2) obicetrapib monotherapy (one 10 mg obicetrapib tablet plus one placebo capsule for ezetimibe); or (3) combination therapy (one 10 mg obicetrapib tablet plus one 10 mg ezetimibe capsule). The participants were instructed to take their assigned treatment orally with water once daily at approximately the same time each morning for the 12‐week treatment period. After randomization, participants returned to the clinical research site during Weeks 4 and 12 (end of treatment) for safety and PK assessments. Participants also completed a follow‐up visit 4 weeks after the end of treatment (Week 16) for final safety and PK assessments. Of the 119 participants randomized, 97 (81.5%) were included in an on‐treatment analysis, which excluded participants with plasma concentrations of obicetrapib <100 ng/mL at either or both Week 4 and Week 12.[12] The on‐treatment PK population (n = 57) included all randomized participants in the mITT population assigned to the two obicetrapib dose groups who had sufficient blood samples collected for valid estimation of PK parameters and excluded participants with plasma concentrations of obicetrapib <100 ng/mL at either or both Week 4 and Week 12. Fifty‐six (98.2%) participants in the on‐treatment PK population were included in the 4‐week post‐end of treatment PK analysis (TA‐8995‐202 CSR, NewAmsterdam Pharma).

[4] abbreviates: Obicetrapib 2.5 mg + stable statin therapy.
The mark [5] stands for this setting: Obicetrapib 5 mg + stable statin therapy.
Where [6] appears, read: Obicetrapib 10 mg + stable statin therapy.
Setting [7] is: Obicetrapib 10 mg + ezetimibe 10 mg + high‐intensity statin.
The mark [8] stands for this setting: Obicetrapib 10 mg + high‐intensity statin.

Read-outs that look alike come from different tables or passages of the source.

For the molecule `CCOC(=O)N1c2ccc(C(F)(F)F)cc2C(N(Cc2cc(C(F)(F)F)cc(C(F)(F)F)c2)c2ncc(OCCCC(=O)O)cn2)CC1CC` (stereo not shown) [Obicetrapib], in data set [1], the cLogDpH7.4 is listed as 4.9. For the same molecule, the “Mean (SD) Plasma Level” value in data set [2] (setting [4]) was 194.5 (42.7) ng/mL; in data set [2] (setting [6]) it was 506.3 (237.5) ng/mL. Further, the “% Change in Plasma Level” value in data set [2] (setting [4]) was −93.4 (2.6) %; in data set [2] (Obicetrapib 2.5 mg + stable statin therapy, listed as obicetrapib), −93.4%; in data set [2] (setting [5]) it was −93.5 (3.4) %; in data set [2] (Obicetrapib 5 mg + stable statin therapy, listed as obicetrapib), −93.5%; in data set [2] (setting [6]), −95.2 (2.3) %; in data set [2] (Obicetrapib 10 mg + stable statin therapy, listed as obicetrapib) it was −95.2%. The “% Change in Plasma Level” value in data set [3] (setting [7]) is −92.2 (3.7) %; in data set [3] (setting [8]), −93.7 (3.3) %; in data set [3] (Obicetrapib 10 mg + high‐intensity statin, listed as obicetrapib), −93.7%. Moreover, the concentration at 8 weeks was found to be 194 ng/mL in data set [2] (2.5 mg, Obicetrapib 2.5 mg + stable statin therapy); 506 ng/mL in data set [2] (10 mg, Obicetrapib 10 mg + stable statin therapy); 362 ng/mL in data set [2] (setting [5]). Further, the concentration at 12 weeks in data set [2] (setting [4]) worked out at 13.2 ng/mL; in data set [2] (setting [5]), 24.6 ng/mL; in data set [2] (setting [6]) it was 27.6 ng/mL; in data set [3] (setting [7]), 360 ng/mL; in data set [3] (setting [8]), 387 ng/mL. In addition, the figures for the concentration at 16 weeks in data set [3] (setting [7]) and in data set [3] (setting [8]) were 28.7 ng/mL and 24.5 ng/mL, respectively.
